Where only a bound is given, the exact number is not on record here.

One data set deals with T1, CYP2D6 (Homo sapiens, UniProt P10635).
T1 construct: tissue BD-Gentest 452117; host or cells: human liver microsomes
The experiment in a line: CYP inhibition assay in human liver microsome. Format: in vitro ADME. As to conditions: human liver microsomes, probe dextromethorphan, dextromethorphan substrate, percentage inhibition <0: not or weak inhibitor, read-out: CYP 2D6 inhibition % @ 10 μM. Here is the method:
This is a high throughput screening assay used for assessment of reversible inhibition of CYP2D6 activity of test compounds in human liver microsome (HLM) in early discovery stage.
10 mM DMSO stock solutions of test compounds were diluted in DMSO to generate 2 mM intermediate stock solution. 250 nL of intermediate stock solution were transferred in duplicate into 3 separate 384 well microtitre plates (assay-ready plates). A mixture of HLM and each substrate was made up. 45 μL of HLM substrate mix was then transferred to each well of an assay ready plate and mixed. The negative (solvent) and positive control (standard inhibitor for CYP 2D6) were included in each assay ready plate. The assay ready plate was warmed to 37° C. in an incubator over 10 minutes. 5 μL pre-warmed NADPH regenerating system was added to each incubation well to start the reaction. Final incubation volume was 50 μL. The assay plate then was placed back in the 37° C. incubator. After 10 minutes incubation, incubates were quenched by addition of 50 μL 100% acetonitrile containing internal standards (20 ng/mL D3-Dextrorphan). The supernatants were collected for RapidFire/MS/MS analysis.
RapidFire online solid phase extraction/sample injection system (Agilent) coupled with API4000 triple quadrupole mass spectrometer (AB Sciex) were used for sample analysis. The mobile phase composed of acetonitrile and water supplemented with 0.1% formic acid. A C4 solid phase extraction cartridge is used for sample separation. MS detection is achieved in positive ion MRM mode.
Peak areas for substrate, metabolite and internal standard are determined using the RapidFire integrator software (version 3.6.12009.12296). Peak area ratios (PAR) of metabolite and internal standard (stable-labelled metabolite) are then calculated. The measurement window for each experiment is then defined:
PAR (0% activity)=average PAR for all incubations containing concentrated inhibitor;
Par (100% activity)=average PAR for all incubations containing no inhibitor (DMSO controls);
% Activity (test inhibitor)=
[PAR(test inhibitor)−PAR(0% activity)]/[PAR(100% activity)−PAR(0% activity)]; % Inhibition (test inhibitor)=100−% Activity (test inhibitor).
For orientation: Microsomes from liver hold many membrane-bound enzymes, among them those of drug oxidation.

The next data set deals with T2, TLR9 (Homo sapiens, UniProt Q9NR96).
T2 sequence (Q9NR96 26-1032): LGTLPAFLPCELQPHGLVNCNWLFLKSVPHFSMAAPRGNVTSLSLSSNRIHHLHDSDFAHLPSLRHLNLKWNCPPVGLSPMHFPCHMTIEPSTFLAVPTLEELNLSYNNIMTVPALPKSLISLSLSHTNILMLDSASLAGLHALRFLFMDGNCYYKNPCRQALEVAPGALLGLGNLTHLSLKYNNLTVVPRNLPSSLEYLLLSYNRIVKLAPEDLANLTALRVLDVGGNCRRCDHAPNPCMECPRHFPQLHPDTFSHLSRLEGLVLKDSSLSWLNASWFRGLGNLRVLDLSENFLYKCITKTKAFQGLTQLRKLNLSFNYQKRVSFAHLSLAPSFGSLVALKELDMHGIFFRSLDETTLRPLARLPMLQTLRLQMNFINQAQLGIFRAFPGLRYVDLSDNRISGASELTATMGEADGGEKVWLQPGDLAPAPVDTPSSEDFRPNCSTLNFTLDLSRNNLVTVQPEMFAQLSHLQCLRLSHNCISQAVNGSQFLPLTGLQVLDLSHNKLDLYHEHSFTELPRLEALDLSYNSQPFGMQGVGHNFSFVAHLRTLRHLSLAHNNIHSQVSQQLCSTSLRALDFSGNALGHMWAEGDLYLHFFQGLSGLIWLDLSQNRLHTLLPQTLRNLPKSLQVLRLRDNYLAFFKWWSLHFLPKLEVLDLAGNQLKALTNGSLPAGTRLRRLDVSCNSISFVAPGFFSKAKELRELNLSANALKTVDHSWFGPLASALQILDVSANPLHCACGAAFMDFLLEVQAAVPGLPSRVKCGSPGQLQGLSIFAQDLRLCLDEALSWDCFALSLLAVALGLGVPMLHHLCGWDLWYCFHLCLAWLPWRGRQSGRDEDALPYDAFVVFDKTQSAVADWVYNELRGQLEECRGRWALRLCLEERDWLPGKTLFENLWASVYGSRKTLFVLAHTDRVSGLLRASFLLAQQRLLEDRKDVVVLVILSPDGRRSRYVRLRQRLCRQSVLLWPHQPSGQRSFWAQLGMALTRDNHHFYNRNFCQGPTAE
The experiment in a line: HEK293-Blue-hTLR-9 cells assay. As to conditions: HEK293-Blue-hTLR9 cells, ODN2006 stimulation, 20 hrs, SEAP reporter; read-out: HEK/hTLR9 IC50. Further details: host or cells: HEK293 (HEK-Blue hTLR9). Format: cell-based. The text has this:
HEK293-Blue-hTLR-9 Cells Assay:
A stable HEK293-Blue-hTLR-9 cell line was purchased from InvivoGen (Cat. #: hkb-htlr9, San Diego, Calif., USA). These cells were originally designed for studying the stimulation of human TLR9 by monitoring the activation of NF-κB. A SEAP (secreted embryonic alkaline phosphatase) reporter gene was placed under the control of the IFN-β minimal promoter fused to five NF-κB and AP-1-binding sites. The SEAP was induced by activating NF-κB and AP-1 via stimulating HEK-Blue hTLR9 cells with TLR9 ligands. Therefore the reporter expression was declined by TLR9 antagonist under the stimulation of a ligand, such as ODN2006 (Cat. #: tlr1-2006-1, Invivogen, San Diego, Calif., USA), for incubation of 20 hrs. The cell culture supernatant SEAP reporter activity was determined using QUANTI-Blue™ kit (Cat. #: rep-01, Invivogen, San Diego, Calif., USA) at a wavelength of 640 nm, a detection medium that turns purple or blue in the presence of alkaline phosphatase.
HEK293-Blue-hTLR9 cells were incubated at a density of 250,000-450,000 cells/mL in a volume of 170 μL in a 96-well plate in Dulbecco's Modified Eagle's medium (DMEM) containing 4.5 g/L glucose, 50 U/mL penicillin, […], 2 mM L-glutamine, 10% (v/v) heat-inactivated fetal bovine serum with addition of 20 μL test compound in a serial dilution in the presence of final DMSO at 1% and 10 μL of 20 uM ODN2006 in above DMEM, perform incubation under 37° C. in a CO2 incubator for 20 hrs. Then 20 μL of the supernatant from each well was incubated with 180 μL Quanti-blue substrate solution at 37° C. for 2 h and the absorbance was read at 620-655 nm using a spectrophotometer. The signaling pathway that TLR9 activation leads to downstream NF-κB activation has been widely accepted, and therefore similar reporter assay was modified for evaluating TLR9 antagonist.

T1 sequence (P10635 whole entry): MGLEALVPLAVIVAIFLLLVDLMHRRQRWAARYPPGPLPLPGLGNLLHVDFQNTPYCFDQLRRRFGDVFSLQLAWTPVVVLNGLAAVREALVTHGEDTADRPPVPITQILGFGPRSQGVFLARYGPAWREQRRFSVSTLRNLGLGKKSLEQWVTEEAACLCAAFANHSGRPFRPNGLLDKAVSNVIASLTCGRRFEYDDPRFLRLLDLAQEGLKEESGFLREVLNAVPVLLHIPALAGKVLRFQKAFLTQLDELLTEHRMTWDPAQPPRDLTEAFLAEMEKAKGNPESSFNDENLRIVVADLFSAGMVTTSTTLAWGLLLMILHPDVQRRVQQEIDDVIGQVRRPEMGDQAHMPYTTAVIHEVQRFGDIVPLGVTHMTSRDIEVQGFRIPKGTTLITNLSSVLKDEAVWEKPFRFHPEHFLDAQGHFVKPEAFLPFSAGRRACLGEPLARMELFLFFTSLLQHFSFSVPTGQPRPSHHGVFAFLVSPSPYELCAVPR

By inhibition is commonly meant the change of the read-out against control, counted positive when it falls. For `C[C@@H]1CN(c2ccc(C#N)c3ncccc23)C[C@H](CN2CC(n3cc4c(n3)[C@@H](C)CNC4)C2)O1` (single isomer, unassigned) [Example 26], on CYP2D6, the inhibition at 10 min, 10 µM is 20%. The IC50 at TLR9 was found to be 89 nM.

In the case of `C[C@@H]1CN(c2ccc(C#N)c3ncccc23)C[C@H](CN2CC(n3ncc4c3CCN[C@H]4C)C2)O1` [Example 22, 5-[(2R,6S)-2-methyl-6-[[3-[(4S)-4-methyl-4,5,6,7-tetrahydropyrazolo[4,3-c]pyridin-1-yl]azetidin-1-yl]methyl]morpholin-4-yl]quinoline-8-carbonitrile], at CYP2D6, the inhibition at 10 min, 10 µM turned out to be 5.5%. Moreover, at TLR9, the IC50 was 70 nM.

Regarding `C[C@@H]1CN(c2ccc(C#N)c3ncccc23)C[C@H](CN2CC(n3cc4c(n3)CNCC4)C2)O1` [Example 4, 5-[(2R,6S)-2-methyl-6-[[3-(4,5,6,7-tetrahydropyrazolo[3,4-c]pyridin-2-yl)azetidin-1-yl]methyl]morpholin-4-yl]quinoline-8-carbonitrile], at CYP2D6, the inhibition at 10 min, 10 µM was 7.5%. Also, the IC50 at TLR9 was less than 32 nM.

Consider `C[C@@H]1CN(c2ccc(C#N)c3ncccc23)C[C@H](CN2CC(n3cc4c(n3)CN[C@@H](C)C4)C2)O1` (single isomer, unassigned) [Example 29], for which the IC50 at TLR9 was 72 nM.

Turning to `C[C@@H]1Cc2nn(C3CN(C[C@H]4CN(c5ccc(C#N)c6ncccc56)C[C@@H](C)O4)C3)cc2CN1` [Example 17, 5-[(2R,6S)-2-methyl-6-[[3-[(6R)-6-methyl-4,5,6,7-tetrahydropyrazolo[4,3-c]pyridin-2-yl]azetidin-1-yl]methyl]morpholin-4-yl]quinoline-8-carbonitrile], at CYP2D6, the inhibition at 10 min, 10 µM is 1.5%. Also, the IC50 on TLR9 came out at 88 nM.

For the molecule `C[C@@H]1CN(c2ccc(C#N)c3ncccc23)C[C@H](CN2CCC(n3ncc4c3CCNC4)CC2)O1` [Example 35, 5-[(2R,6S)-2-methyl-6-[[4-(4,5,6,7-tetrahydropyrazolo[4,3-c]pyridin-1-yl)-1-piperidyl]methyl]morpholin-4-yl]quinoline-8-carbonitrile], the IC50 on TLR9 is 82 nM.

For `Cc1nn(C2CN(C[C@H]3CN(c4ccc(C#N)c5ncccc45)C[C@@H](C)O3)C2)c2c1CNCC2` [Example 12, 5-[(2R,6S)-2-methyl-6-[[3-(3-methyl-4,5,6,7-tetrahydropyrazolo[4,3-c]pyridin-1-yl)azetidin-1-yl]methyl]morpholin-4-yl]quinoline-8-carbonitrile], the inhibition at 10 min, 10 µM at CYP2D6 stood at 6%. The IC50 at TLR9 was found to be 78 nM.

With `C[C@@H]1CN(c2ccc(C#N)c3ncccc23)C[C@H](CN2CC(n3cc4c(n3)[C@H](C)CNC4)C2)O1` (single isomer, unassigned) [Example 25], the IC50 on TLR9 was determined as 82 nM.

Take `C[C@@H]1CN(c2ccc(C#N)c3ncccc23)C[C@H](CN2CC(n3cc4c(n3)CN(C)CC4)C2)O1` [Example 5, 5-[(2R,6S)-2-methyl-6-[[3-(6-methyl-5,7-dihydro-4H-pyrazolo[3,4-c]pyridin-2-yl)azetidin-1-yl]methyl]morpholin-4-yl]quinoline-8-carbonitrile]: the inhibition at 10 min, 10 µM at CYP2D6 was -1.5%. Besides, the IC50 at TLR9 worked out at 137 nM.

Consider `C[C@@H]1CN(c2ccc(C#N)c3ncccc23)C[C@H](CN2CC(n3ncc4c3[C@H](C)NCC4)C2)O1` (single isomer, unassigned) [Example 32], for which, on CYP2D6, the inhibition at 10 min, 10 µM worked out at 11%. For the same molecule, the IC50 at TLR9 is 62 nM.

Consider `C[C@@H]1CN(c2ccc(C#N)c3ncccc23)C[C@H](CN2CC(n3cc4c(n3)[C@@H](C)NCC4)C2)O1` (single isomer, unassigned) [Example 33], for which the IC50 on TLR9 turned out to be 34 nM.

Regarding `Cc1nn(C2CN(C[C@H]3CN(c4ccc(C#N)c5ncccc45)C[C@@H](C)O3)C2)c2c1CN(C)CC2` [Example 14, 5-[(2S,6R)-2-[[3-(3,5-dimethyl-6,7-dihydro-4H-pyrazolo[4,3-c]pyridin-1-yl)azetidin-1-yl]methyl]-6-methyl-morpholin-4-yl]quinoline-8-carbonitrile], the IC50 on TLR9 amounted to 276 nM.

In the case of `Cc1c2c(nn1C1CN(C[C@H]3CN(c4ccc(C#N)c5ncccc45)C[C@@H](C)O3)C1)CNCC2` [Example 43, 5-[(2R,6S)-2-methyl-6-[[3-(3-methyl-4,5,6,7-tetrahydropyrazolo[3,4-c]pyridin-2-yl)azetidin-1-yl]methyl]morpholin-4-yl]quinoline-8-carbonitrile], the IC50 at TLR9 is 83 nM.

On to `C[C@@H]1CN(c2ccc(C#N)c3ncccc23)C[C@H](CN2CC(n3ncc4c3CCNC4)C2)O1` [Example 1, 5-[(2R,6S)-2-methyl-6-[[3-(4,5,6,7-tetrahydropyrazolo[4,3-c]pyridin-1-yl)azetidin-1-yl]methyl]morpholin-4-yl]quinoline-8-carbonitrile], for which the IC50 on TLR9 amounted to 57 nM.

With `C[C@@H]1CN(c2ccc(C#N)c3ncccc23)C[C@H](CN2CC(n3cc4c(n3)C(C)(C)CNC4)C2)O1` [Example 24, 5-[(2S,6R)-2-[[3-(7,7-dimethyl-5,6-dihydro-4H-pyrazolo[4,3-c]pyridin-2-yl)azetidin-1-yl]methyl]-6-methyl-morpholin-4-yl]quinoline-8-carbonitrile], the IC50 on TLR9 stood at 98 nM.

Turning to `C[C@@H]1CN(c2ccc(C#N)c3ncccc23)C[C@H](CN2CC(n3ncc4c3CNC4)C2)O1` [Example 10, 5-[(2S,6R)-2-[[3-(5,6-dihydro-4H-pyrrolo[3,4-c]pyrazol-1-yl)azetidin-1-yl]methyl]-6-methyl-morpholin-4-yl]quinoline-8-carbonitrile], the IC50 on TLR9 is 143 nM.

(Values after patent publication US20210300924A1, “5-[6-[[3-(4,5,6,7-TETRAHYDROPYRAZOLO[4,3-C]PYRIDIN-1-YL)AZETIDIN-1-YL]METHYL]MORPHOLIN-4-YL]QUINOLINE-8-CARBONITRILE DERIVATIVES AND SIMILAR COMPOUNDS AS TLR7-9 ANTAGONISTS FOR TREATING SYSTEMIC LUPUS ERYTHEMATOSUS” (Hoffmann-La Roche Inc., priority 2018, published 2021).)
